The target of the assay is 5α-reductase. In words: 5α-reductase inhibitory activity in vitro. The settings on record: male rats' prostate enzyme, [4-C14]-testosterone, NADPH, 60 mins at 37° C., pH 7.4. The class given is biochemical, rat. As to the method: 5α-reductase inhibitory activity in vitro
Inhibitory activity on 5α-reductase in vitro was measured by the following test system.
The test was carried out by making reference to the method of J. Shimazaki et al [See Endocrinical. Japon., 18, 179 (1971)].
Male rats' prostate (4 g) was homogenized with its triple volume of 0.1M HEPES buffer (pH 7.4) including 0.25M cane sugar, and was centrifuged at 3000 r.p.m. for 10 mins.
The precipitate was suspended into the buffer solution described above (10 ml), and the suspension was centrifuged at 3000 r.p.m. for 5 mins. The resulting precipitated was suspended in the buffer solution (3 ml) described above and was used as a sauce of enzyme.
A reaction mixture (total volume 0.1 ml) of [4-C^14 ]-testosterone (1.5 n mol, 1.5×10^5 cpm) NADPH (0.5 μmol) enzyme solution (0.03 ml) described above and several kinds of concentration of the compounds in the present invention was incubated for 60 mins at 37° C. Enzyme reaction was quenched by addition of a mixture (1.0 ml) of diethyl ether, petroleum ether and acetic acid (80:20:1), and the mixture was centrifuged at 3000 r.p.m. for 5 mins. The supernatant (200 μl) was spotted on silica gel thin layer plate. The spot on the plate was developed with a mixture of chloroform, methanol and acetic acid (99:0.8:0.2). Radioactivity of dihydrotestosterone generated on the plate was measured by TLC scanner of radio-autography and inhibitory ratio was calculated.

26 molecules from patent publication US4980372A, “Benzoylaminophenoxybutanoic acid derivatives” (Ono Pharmaceutical Co., Ltd., priority 1987, dated 1990) can be followed below.

`Cc1c(OCc2ccccc2)ccc(C(=O)Nc2ccccc2OCCCC(=O)O)c1C` [2(a), 4-[2-(4-benzyloxy-2,3-dimethylbenzoylamino)phenoxy]butanoic acid] had an IC50 of 2100 nM.

Consider `CC(C)Cc1ccc(COc2ccc(C(=O)Nc3ccccc3OCCCC(=O)O)c3ccccc23)cc1` [2(aa), 4-[2-[4-[4-isobutylbenzyloxy)naphthalene-1-carbonylamino]phenoxy]butanoic acid], for which the IC50 worked out at 520 nM.

`Cc1ccccc1COc1ccc(C(=O)Nc2ccccc2OCCCC(=O)O)c(C)c1C` [2(b), 4-[2-[4-(2-methylbenzyloxy)-2,3-dimethylbenzoylamino]phenoxy]butanoic acid] displayed an IC50 of 380 nM. In the case of `CC(C)Cc1ccc(COc2ccc(C(=O)Nc3ccccc3SCCCC(=O)O)c3c2CCCC3)cc1` [2(bb), 4-[2-[4-(4-isobutylbenzyloxy)-5,6,7,8-tetrahydronaphthalene-1-carbonylamino]phenylthio]butanoic acid] it was 420 nM; in that of `Cc1cccc(COc2ccc(C(=O)Nc3ccccc3OCCCC(=O)O)c(C)c2C)c1` [2(c), 4-[2-[4-(3-methylbenzyloxy)-2,3-dimethylbenzoylamino]phenoxy]butanoic acid], 1300 nM; in that of `CCCc1ccc(COc2ccc(C(=O)Nc3ccccc3SCCCC(=O)O)c(C)c2C)cc1` [2(cc), 4-[2-[4-(4-propylbenzyloxy)-2,3-dimethylbenzoylamino)phenylthio]butanoic acid], 380 nM. With `Cc1ccc(COc2ccc(C(=O)Nc3ccccc3OCCCC(=O)O)c(C)c2C)cc1` [2(d), 4-[2-[4-(4-methylbenzyloxy)-2,3-dimethylbenzoylamino]phenoxy]butanoic acid] the figure was 980 nM; with `Cc1c(OC(C)c2ccc(CC(C)C)cc2)ccc(C(=O)Nc2ccccc2SCCCC(=O)O)c1C` (centres unmarked) [2(dd), 4-[2-[4-[1-(4-isobutylphenyl)ethoxy]-2,3-dimethylbenzoylamino]phenylthio]butanoic acid], 120 nM; with `Cc1cccc(C)c1COc1ccc(C(=O)Nc2ccccc2OCCCC(=O)O)c(C)c1C` [2(e), 4-[2-[4-(2,6-dimethylbenzyloxy)-2,3-dimethylbenzoylamino]phenoxy]butanoic acid], 1400 nM. `CCc1ccc(COc2ccc(C(=O)Nc3ccccc3OCCCC(=O)O)c(C)c2C)cc1` [2(f), 4-[2-[4-(4-ethybenzyloxy)-2,3-dimethylbenzoylamino]phenoxy]butanoic acid] came in with an IC50 of 270 nM.

Regarding `CCCc1ccc(COc2ccc(C(=O)Nc3ccccc3OCCCC(=O)O)c(C)c2C)cc1` [2(g), 4-[2-[4-(4-propylbenzyloxy)-2,3-dimethylbenzoylamino]phenoxy]butanoic acid], the IC50 was found to be 340 nM. In the case of `Cc1c(OCc2ccc(C(C)C)cc2)ccc(C(=O)Nc2ccccc2OCCCC(=O)O)c1C` [2(h), 4-[2-[4-(4-isopropylbenzyloxy)-2,3-dimethylbenzoylamino]phenoxy]butanoic acid] it was 260 nM; in that of `Cc1c(OCc2ccc(Cl)cc2)ccc(C(=O)Nc2ccccc2OCCCC(=O)O)c1C` [2(i), 4-[2-[4-(4-chlorobenzyloxy)-2,3-dimethylbenzoylamino]phenoxy]butanoic acid], 2000 nM. `Cc1c(OCc2ccc(CC3CCC3)cc2)ccc(C(=O)Nc2ccccc2OCCCC(=O)O)c1C` [2(j), 4-[2-[4-(4-cyclobutylmethylbenzyloxy)-2,3-dimethylbenzoylamino]phenoxy]butanoic] registered an IC50 of 2500 nM. In the case of `Cc1c(OCCc2ccccc2)ccc(C(=O)Nc2ccccc2OCCCC(=O)O)c1C` [2(k), 4-[2-[4-(2-phenylethoxy)-2,3-dimethylbenzoylamino]phenoxy]butanoic acid] it was 2600 nM.

With `Cc1c(OCCCc2ccccc2)ccc(C(=O)Nc2ccccc2OCCCC(=O)O)c1C` [2(l)], the IC50 came out at 1000 nM. With `Cc1c(OCCCCc2ccccc2)ccc(C(=O)Nc2ccccc2OCCCC(=O)O)c1C` [2(m), 4-[2-[4-(4-phenylbutoxy)-2,3-dimethylbenzoylamino]phenoxy]butanoic acid], the IC50 was 750 nM. In the case of `Cc1c(OCCCCCc2ccccc2)ccc(C(=O)Nc2ccccc2OCCCC(=O)O)c1C` [2(n), 4-[2-[4-(5-phenylpentyloxy)-2,3-dimethylbenzoylamino]phenoxy]butanoic acid] it was 950 nM. With `Cc1c(OC(C)c2ccc(CC(C)C)cc2)ccc(C(=O)Nc2ccccc2OCCCC(=O)O)c1C` (centres unmarked) [2(o), 4-[2-[4-[1-(4-isobutylphenyl)ethoxy]-2,3-dimethylbenzoylamino]phenoxy]butanoic acid] the figure was 5 nM; with `CCCc1ccc(C(Oc2ccc(C(=O)Nc3ccccc3OCCCC(=O)O)c(C)c2C)c2ccc(CCC)cc2)cc1` [2(p), 4-[2-[4-[bis(4-propylphenyl)methoxy]-2,3-dimethylbenzoylamino]phenoxy]butanoic acid], 11 nM; with `Cc1c(OC(c2ccccc2)c2ccccc2)ccc(C(=O)Nc2ccccc2OCCCC(=O)O)c1C` [2(q)], 200 nM. With `CC(C)Cc1ccc(COc2ccc(C(=O)Nc3ccccc3OCCCC(=O)O)c(Cl)c2Cl)cc1` [2(x), 4-[2-[4-(4-isobutylbenzyloxy)-2,3-dichlorobenzoylamino]phenoxy]butanoic acid] the figure was 2800 nM; with `CC(C)Cc1ccc(COc2ccc(C(=O)Nc3ccccc3OCCCC(=O)O)c3c2CCC3)cc1` [2(y), 4-[2-(7-(4-isobutylbenzyloxy)indane-4-carbonylamino]phenoxy]butanoic acid], 410 nM. As for `CC(C)Cc1ccc(COc2ccc(C(=O)Nc3ccccc3OCCCC(=O)O)c3c2CCCC3)cc1` [2(z), 4-[2-[4-(4-isobutylbenzyloxy)-5,6,7,8-tetrahydronaphthalene-1-carbonylamino]phenoxy]butanoic acid], the IC50 was determined as 50 nM. Turning to `Cc1c(OCc2ccc(CC(C)C)cc2)ccc(C(=O)Nc2ccccc2OCCCC(=O)O)c1C` [Example 2, 4-[2-[4-(4 isobutylbenzyloxy)-2 3-dimethylbenzoylamino]phenoxy]butanoic acid], the IC50 turned out to be 120 nM. In the case of `CCCc1ccc(COc2ccc(C(=O)Nc3ccccc3[S+]([O-])CCCC(=O)O)c(C)c2C)cc1` (centres unmarked) [Example 3, 4-[2-[4-(4-propylbenzyloxy)-2,3-dimethylbenzoylamino]phenylsulfinyl]butanoic acid] it was 700 nM.
